Entries after “also recorded” stand apart in the source; their conditions may differ.
Assays:
Format in all cases: in vivo, cynomolgus monkeys (Macaca fascicularis)
[1] = tested on: chronic low dose MPTP-treated monkeys; experiment: spatial delayed response (DR) task
Source text: (§1) Four adult male cynomolgus monkeys (Macaca fascicularis) weighing 5.0-8.0 kg at the beginning of testing were used. All animals had prior behavioral testing experience and had stable cognitive deficits as a result of prior MPTP administration. These animals had previously been used in other pharmacological studies (Schneider J S, Tinker J P, Van Velson M, Menzaghi F, Lloyd G K. Nicotinic acetylcholine receptor agonist SIB-1508Y improves cognitive functioning in chronic low dose MPTP-treated monkeys. J Pharmacol Exp Ther 290: In Press, 1999) but had received no drug treatments for at least 6 mos. prior to the start of this study. This study was approved by the Institutional Animal Care and Use Committee at Thomas Jefferson University and performed in accordance with the NIH Guide for the Care and Use of Laboratory Animals.
(§2) Three of the four animals were tested in a modified Wisconsin General Test Apparatus (WGTA) (Schneider and Kovelowski, 1990); one animal performed computer automated tasks while seated in front of a touch sensitive computer monitor located in a darkened sound-attenuated cubicle. All monkeys performed a spatial delayed response (DR) task, a variable delayed response task (VDR) and a visual discrimination (VD) task.
(§3) The monkeys that performed in the WGTA sat in a restraining chair situated in a sound-attenuating chamber with background masking noise, behind an opaque screen that when raised, allowed access to a sliding tray. The tray contained recessed food wells and identical sliding red Plexiglas covers that served as stimulus plaques that could be displaced by the animal to obtain rewards (raisins, dried fruit, marshmallows). The monkeys were trained to retrieve food from one of the wells after observing the experimenter bait a well. Right and left wells were baited in a balanced order. Each daily session consisted of 30 trials. For VDR testing, five different delay lengths (2, 5, 10, 20 and 30 secs.) were randomly distributed in blocks of trials over the 40 trials that made up a daily testing session. For VD testing, monkeys were trained to discriminate between two patterns (a cross and a horizontal bar) on otherwise identical Plexiglas covers. The position of the positive stimulus (cross) over the left or right food well varied pseudorandomly. The cover had to be displaced in order to retrieve reward from the recessed food well beneath the cover. A test session consisted of 30 trials. Animals were food deprived overnight prior to testing the next day.
(§4) The monkey that performed the computer automated tasks sat in a restraining chair situated in a sound-attenuating chamber with background masking noise, and faced a touch sensitive computer screen with a lever located beneath it. The animal initiated a DR or VDR trial by holding down the lever for one to three seconds. This caused the cue, a filled white circle one inch in diameter, to appear on the right or left side of the screen for two seconds. The cue was then extinguished for a delay period (five seconds for DR; 2, 5, 10, 20, and 30 secs. for VDR) and then identical left and right choice stimuli (filled red circles, one inch in diameter) were presented. The monkey was rewarded with a fruit flavored drink from an automatic dispenser if it touched the response light located on the same side as where the cue appeared. Side of cue presentation was counter-balanced and left/right rewards were distributed pseudorandomly over the 30 trials (40 trials for VDR) that made up a daily testing session. This animal was tested in the morning and fluid deprived overnight prior to testing.
(§5) Animals initially received low doses of MPTP for periods of up to 178 days until stable cognitive deficits (consistent performance deficits of at least 15% on DR) were observed (Schneider et al., 1999). These animals had not received any MPTP for at least 9 months prior to the start of this study. […]

[2] = tested on: chronic low dose MPTP-treated monkeys; experiment: variable delayed response (VDR) task
Source text: as §1, §2, §3, §4, §5

[3] = tested on: chronic low dose MPTP-treated monkeys; experiment: visual discrimination (VD) task
Source text: as §1, §2
as §3, with “A test session consisted of 30 trials. Animals were food deprived overnight prior to testing the next day.” left out
Animals initially received low doses of MPTP for periods of up to 178 days until stable cognitive deficits (consistent performance deficits of at least 15% on DR) were observed (Schneider et al., 1999). […] Drug effects were determined for D-cycloserine and MK-801 (Research Biochemicals International, Natick, M A) at doses of 100, 320, 1,000, and 8,000 μg/kg and 10, 20 or 32 μg/kg, respectively. […]

[4] = tested on: chronic low dose MPTP-treated monkeys; experiment: motor functioning during visual discrimination testing

SMILES | DR performance ([1]; 100 μg/kg i.m., approx. 30 min before test, vs. saline) | DR performance ([1]; 320 μg/kg i.m., approx. 30 min before test, vs. saline (t=6.73, p<0.01)) | DR performance ([1]; 1,000 μg/kg i.m., approx. 30 min before test, vs. saline (t=3.76, p<0.05)) | DR performance ([1]; 8,000 μg/kg i.m., approx. 30 min before test, vs. saline) | MPTP-induced DR performance deficit ([1]; dose response 100 to 1000 μg/kg i.m., 4 animals, FIG. 1A) | VDR performance ([2]; 100 μg/kg i.m., all delays (2, 5, 10, 20, 30 sec)) | VDR performance ([2]; 320 μg/kg i.m., at 2, 5, and 20 sec. delays) | VDR performance ([2]; 1,000 μg/kg i.m., at 2, 5, and 10 sec delays) | VDR performance ([2]; 8,000 μg/kg i.m.) | VDR performance ([2]; 30 sec. delay, any dose) | VDR performance ([2]; best (most facilitating) dose for each animal vs. saline, FIG. 1B) | VD performance ([3]; 8,000 μg/kg i.m., all animals, p<0.01 vs. saline, FIG. 2) | VD performance ([3]; 100 to 1,000 μg/kg i.m.) | deficits in VD performance ([3]; low doses (10, 32 or 100 μg/kg)) | motor functioning ([4]; 8,000 μg/kg i.m.) | DR performance ([1]; 10-32 μg/kg i.m., vs. saline) | VD performance ([3]; 10-32 μg/kg i.m., all animals, p<0.01 vs. saline, FIG. 2) | motor functioning ([4]; 10-32 μg/kg i.m.)
N[C@@H]1CONC1=O [D-cycloserine] | Neither the low (100 μg/kg) nor high (8,000 μg/kg) doses of D-cycloserine had any effect | significantly improving task performance | significantly improving task performance | Neither the low (100 μg/kg) nor high (8,000 μg/kg) doses of D-cycloserine had any effect; also recorded: neither improvement nor further disruption | at least partially corrected | had no effects | significantly improved performance | significantly improved performance | neither improvement nor further disruption | None of the doses of D-cycloserine improved performance | significantly improved performance at all but the longest delay | significantly disrupted; also recorded: significantly impaired; also recorded: deficits induced in VD performance | had no effects | not with low doses | did not significantly impair motor functioning |  |  | 
C[C@]12N[C@H](Cc3ccccc31)c1ccccc12 [MK-801] |  |  |  |  |  |  |  |  |  |  |  |  |  |  |  | had no effects | significantly disrupted; also recorded: significant impairment | did not significantly impair motor functioning

Source: US6551993B1, “Partial agonists at the glycine modulatory site of the NMDA receptor for treating cognitive dysfunction” (Thomas Jefferson University, priority 1999, dated 2003)
